Data on seven molecules can be found in patent publication US9938222B2 (BRISTOL-MYERS SQUIBB COMPANY, priority 2014, dated 2018).

Usually EC50 stands for the concentration that produces a half-maximal response. Read a low EC50 as higher potency in that assay.

Assay [1] deals with human GPR120 (Homo sapiens (Human), UniProt Q5NUL3). Kind of assay: GPR120 pERK AlphaScreen SureFire Assay (human GPR120 pERK assay). It is filed as cell-based. The note with it: CHO cells stably transfected with short form of human GPR120. A digest of the protocol:
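CHOA12 cells stably expressing short-form human GPR120, serum-starved 2 h, then stimulated 7 min at 37° C with compound (33.33 μM to 0.56 nM, 11-point). Phospho-ERK1/2 read by AlphaScreen SureFire in lysates. Activation scaled between DMSO and 50 μM linolenic acid; EC50 from a 4-parameter logistic fit.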
For orientation: Alpha assays give light when donor and acceptor beads are brought close together.

The subject of assay [2] is C57BL/6 mice. Kind of assay: Acute Oral Glucose Tolerance Test. Particulars: dosed at 30 mg/kg orally 60 min before glucose challenge (2 g/kg), AUC t=0-120 min compared to vehicle. It is filed as in vivo. The procedure: In Vivo GPR120 Assays 1) Acute Oral Glucose Tolerance Test
C57BL/6 mice were housed individually and fed a standard rodent chow diet. At approximately 11 weeks age, after a 5 h fast, these mice were orally treated with vehicle or test compounds 60 min before a glucose challenge (2 g/kg). Blood glucose levels were determined from tail bleeds taken at −60, 0, 15, 30, 60 and 120 min after the glucose challenge. […] This AUC for compound treatment is compared to vehicle treatment.

Sequence of human GPR120 (Q5NUL3 whole entry): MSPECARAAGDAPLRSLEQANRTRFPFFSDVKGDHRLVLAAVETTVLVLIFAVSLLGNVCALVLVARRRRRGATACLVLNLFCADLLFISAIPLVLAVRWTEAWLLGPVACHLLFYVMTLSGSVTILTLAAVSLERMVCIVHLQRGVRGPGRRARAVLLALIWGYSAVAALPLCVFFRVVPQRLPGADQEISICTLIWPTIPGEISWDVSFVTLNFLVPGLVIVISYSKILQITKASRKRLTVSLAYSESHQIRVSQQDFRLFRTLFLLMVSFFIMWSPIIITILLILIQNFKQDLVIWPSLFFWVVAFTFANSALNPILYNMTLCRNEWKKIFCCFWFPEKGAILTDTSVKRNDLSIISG

Consider `O=C(O)[C@H]1C[C@@H]1COc1ccc(-c2cc(Oc3cccc(F)c3)cc(F)c2F)cc1F` (single isomer, unassigned) [Example 105], for which the 50% effective concentration (EC50) in assay [1] was 140 nM. Further, the “reduced glucose AUC” value in assay [2] came to 55%.

`CC(C)Oc1ccc(F)c(-c2ccc(OC[C@@H]3C[C@H]3C(=O)O)cc2)c1F` (relative stereo) [Example 127, Trans-2-(((2′,6′-difluoro-3′-isopropoxy-[1,1′-biphenyl]-4-yl)oxy)methyl) cyclopropanecarboxylic acid] showed an EC50 in assay [1] of 940 nM.

Molecule `COc1cc(OC(C)C)cc(-c2ccc(OC[C@@H]3C[C@H]3C(=O)O)cc2)c1` (racemic) [Example 117, Trans-2-(((3′-isopropoxy-5′-methoxy-[1,1′-biphenyl]-4-yl)oxy)methyl) cyclopropanecarboxylic acid] yielded an EC50 in assay [1] of 1110 nM.

For the molecule `CC(C)Oc1ccc(F)c(-c2ccc(CC[C@H]3C[C@H]3C(=O)O)cc2)c1` (racemic) [Example 15, (Cis)-(+/−)-2-(2-(2′-fluoro-5′-isopropoxy-[1,1′-biphenyl]-4-yl)ethyl) cyclopropanecarboxylic acid], in assay [1], the 50% effective concentration (EC50) was 1690 nM.

In the case of `O=C(O)[C@@H]1C[C@H]1COCc1ccc(-c2cc(Oc3ccccc3)ccc2F)cc1` (racemic) [Example 25, Trans-2-(((2′-fluoro-5′-phenoxy-[1,1′-biphenyl]-4-yl)methoxy)methyl) cyclopropanecarboxylic acid], a half-maximal response in assay [1] (EC50) required 980 nM.

Regarding `O=C(O)[C@@H]1C[C@H]1COc1ccc(-c2cc(Cl)cc(C(F)(F)F)c2)cc1` (racemic) [Example 124, Trans-2-(((3′-chloro-5′-(trifluoromethyl)-[1,1′-biphenyl]-4-yl)oxy)methyl)cyclopropanecarboxylic acid], in assay [1], the concentration giving a half-maximal response (EC50) stood at 2440 nM.

`COCc1cc(OC(C)C)cc(-c2ccc(OC[C@@H]3C[C@H]3C(=O)O)cc2)c1` (racemic) [Example 86, Trans-2-(((3′-isopropoxy-5′-(methoxymethyl)-[1,1′-biphenyl]-4-yl)oxy)methyl) cyclopropanecarboxylic acid] had a concentration giving a half-maximal response (EC50) in assay [1] of 3620 nM.
